Patent US20230295162A1 (EÖTVÖS LORÁND TUDOMÁNYEGYETEM, priority 2020, published 2023)
Read-outs that look alike come from different tables or passages of the source.

How the values were obtained:
Fadu cell line = assay: Additional in vitro IC50 tests (Table 3); format: cell-based; details: Homo sapiens
Protocol: (§1) Cell lines were maintained according to the instructions provided by ATCC (https://www.lgcstandards-atcc.org/) in a 5% CO2 humidified incubator maintained at 37° C. temperature. Effects of compounds on cell viability were measured via CellTiter-Glo® luminescent cell viability assay (Promega, Madison, WI, USA) Cells were plated at 1000 cells/well onto a flat-bottomed, white 96 well plate (BRANDplates, cat. no.: 781965). […] After the treatment, medium was removed and CellTiter-Glo® reagent was added. The luminescence signal was recorded using a microplate reader (BioTek Synergy 2 Multi-Mode Reader, BioTek, Winooski, VT, USA).
(§2) Cell viability data (% of untreated control cells) was evaluated with Microsoft Excel. Dose-response curves (using a non-linear regression model, log (inhibitor) vs response, variable slope) were generated and IC50 values were determined using Graph Pad Prism 5.02 software (GraphPad Software, San Diego, CA, USA).

EBC-1 cell line = assay: Additional in vitro IC50 tests (Table 3); format: cell-based; details: Homo sapiens
Protocol: as §1, §2

H2228 cell line = assay: Additional in vitro IC50 tests (Table 3); format: cell-based; details: Homo sapiens, NCI-H2228
Protocol: as §1, §2

SCC-25 cell line = assay: Additional in vitro IC50 tests (Table 3); format: cell-based; details: Homo sapiens
Protocol: as §1, §2

Detroit 562 cell line = assay: Additional in vitro IC50 tests (Table 3); format: cell-based; details: Homo sapiens
Protocol: as §1, §2

[1] = system: HCC827 lung carcinoma cell line; assay: CellTiter-Glo IC50 (Example 19); format: cell-based; details: Homo sapiens, 72 h
Protocol: (§3) Some representative imipridones and ONC212 as reference were further tested on the following human malignant cell lines: PC3 and LNCap (prostate carcinoma); BxPC3, MiaPaCa2 and Panc1 (pancreatic cancer); A549, HCC827, H1993 and H520 (lung carcinoma); MDA-MB-453 and MDA-MB-231 (breast cancer) (see Table 2 and FIGS. 1-11).
as §1, §2

[2] = system: H1993 lung carcinoma cell line; assay: CellTiter-Glo IC50 (Example 19); format: cell-based; details: Homo sapiens, NCI-H1993, 72 h
Protocol: as §3, §1, §2

[3] = system: Panc1 pancreatic cancer cell line; assay: CellTiter-Glo IC50 (Example 19); format: cell-based; details: Homo sapiens, PANC-1, 72 h
Protocol: as §3, §1, §2

[4] = system: A549 lung carcinoma cell line; assay: CellTiter-Glo IC50 (Example 19); format: cell-based; details: Homo sapiens, 72 h
Protocol: as §3, §1, §2

[5] = system: MiaPaCa2 pancreatic cancer cell line; assay: CellTiter-Glo IC50 (Example 19); format: cell-based; details: Homo sapiens, MIA PaCa-2, 72 h
Protocol: as §3, §1, §2

[6] = system: H520 lung carcinoma cell line; assay: CellTiter-Glo IC50 (Example 19); format: cell-based; details: Homo sapiens, NCI-H520, 72 h
Protocol: as §3, §1, §2

[7] = system: LNCap human prostate cancer cell line; assay: CellTiter-Glo IC50 (Example 19); format: cell-based; details: 72 h
Protocol: as §3, §1, §2

[8] = system: PC3 human prostate cancer cell line; assay: CellTiter-Glo IC50 (Example 19); format: cell-based; details: 72 h
Protocol: as §3, §1, §2

[9] = system: BxPC3 pancreatic cancer cell line; assay: CellTiter-Glo IC50 (Example 19); format: cell-based; details: Homo sapiens, BXPC-3, 72 h
Protocol: as §3, §1, §2

[10] = system: MDA-MB-231 breast cancer cell line; assay: CellTiter-Glo IC50 (Table 3); format: cell-based; details: Homo sapiens
Protocol: as §3, §1, §2

[11] = system: MDA-MB-453 breast cancer cell line; assay: CellTiter-Glo IC50 (Table 3); format: cell-based; details: Homo sapiens
Protocol: as §3, §1, §2

Panc-1 human cell line = assay: Cytotoxicity on Panc-1, xCELLigence SP, IC50 after 24 h, 48 h, 72 h and 96 h (Example 22)
[12] = system: A2058 (human metastatic melanoma) cells; assay: Colorimetric alamarBlue assay, long treatment; details: Homo sapiens, A2058, 72 h, read-out: cytotoxicity expressed in IC50, A-2058
[13] = system: COLO-205 (human colorectal adenocarcinoma) cells; assay: Colorimetric alamarBlue assay, long treatment; details: COLO 205, 72 h, read-out: cytotoxicity expressed in IC50, COLO-205
[14] = system: MDA-MB-231 human triple-negative breast cancer xenografts; assay: Antitumoral effect on subcutaneous MDA-MB-231 tumor xenografts in SCID mice (Example 23); format: in vivo; details: intraperitoneal
Protocol: MDA-MB-231 human triple-negative breast cancer xenografts were formed by subcutaneous inoculation of tumor cells into the back of the immunodeficient (SCID) mice. The investigated materials were injected into the animals intraperitoneal every two-three days for 3 weeks.
Forty SCID mice were included in the experiment. Each animal group was kept in separate cage during the experiments. On each cage, there was an identification card with birth date, the date of tumor cell injection, number and gender of animals. The injection of each substance was written on the identification card. Eight animals per substance were used and identified by ear cutting.
MDA-MB-231 human triple-negative breast cancer cells were grown in RPMI-1640 Medium (Sigma Chemical Co., St. Louis, MO), supplemented with 10% fetal bovine serum (Sigma) and 1% penicillin-streptomycin (Sigma) at 37° C. in a humidified atmosphere of 5% CO2. […]
During the experiment weight of the animals and size of the tumors were recorded.
Tumor volume was determined three times a week during the experiment.
Anti-tumor effect of compounds was evaluated also measuring tumor weight in each group after termination of experiment (FIGS. 64 and 65).

[15] = system: representative cell lines; assay: Cytotoxicity on representative cell lines (summary statement); format: cell-based; details: Homo sapiens; summary range, ca.
[16] = PANC-1, 72 h, read-out: IC50 (72 h) [nM]
[17] = PANC-1, 96 h, read-out: IC50 (96 h) [nM]

Row | SMILES | IC50 (Fadu cell line) | IC50 (EBC-1 cell line) | IC50 (H2228 cell line) | IC50 (SCC-25 cell line) | IC50 (Detroit 562 cell line) | melting point | IC50 [1] | IC50 [2] | IC50 [3] | IC50 [4] | IC50 [5] | IC50 [6] | IC50 [7] | IC50 [8] | IC50 [9] | IC50 [10] | IC50 [11] | IC50 (Panc-1 human cell line; [16]) | IC50 (Panc-1 human cell line; [17]) | also measured
1 | O=C1C2=C(CCN(Cc3ccccc3)C2)N2CCN=C2N1Cc1ccc(C(F)(F)F)cc1 [I/1, reference compound] | 90 nM | 76 nM | 105 nM | 166 nM | 32 nM | – | 105 nM | 90 nM | 74 nM | 60 nM | 76 nM | 73 nM | 52 nM | 80 nM | 110 nM | 24 nM | 16 nM | 274 ± 15.9 nM | 185 ± 44.4 nM | IC50 [12]: > 10000 nM; IC50 [13]: 250 nM
2 | [N-]=[N+]=Nc1ccc(CN2C(=O)C3=C(CCN(Cc4cc(F)cc(F)c4)C3)N3CCN=C23)cc1 [I/107, 4-(4-Azidobenzyl)-7-(3,5-difluorobenzyl)-2,4,6,7,8,9-hexahydroimidazo[1,2-a]pyrido[3,4-e]pyrimidin-5(1H)-one] | 19 nM | 17 nM | 24 nM | 31 nM | 7 nM | 155.5 °C | 15 nM | 12 nM | 14 nM | 16 nM | 16 nM | 8 nM | 5 nM | 11 nM | 14 nM | 3 nM | 2 nM | 102 ± 24.4 nM | 49.6 ± 17 nM | –
3 | O=C1C2=C(CCN(Cc3cccc(F)c3)C2)N2CCN=C2N1Cc1ccc(C(F)(F)F)cc1 [I/3, reference compound] | – | – | – | – | – | – | – | – | – | – | – | – | – | – | – | – | – | 45.3 ± 3.34 nM | 22.6 ± 0.856 nM | IC50 [12]: > 10000 nM; IC50 [13]: > 10000 nM

The remaining compounds from weak to strong by IC50 (Fadu cell line), led by results:

Row | IC50 (Fadu cell line) | IC50 (EBC-1 cell line) | IC50 (H2228 cell line) | IC50 (SCC-25 cell line) | IC50 (Detroit 562 cell line) | melting point | IC50 [1] | IC50 [2] | IC50 [3] | IC50 [4] | IC50 [5] | IC50 [6] | IC50 [7] | IC50 [8] | IC50 [9] | IC50 [10] | IC50 [11] | SMILES | IC50 (Panc-1 human cell line; [16]) | IC50 (Panc-1 human cell line; [17]) | also measured
4 | 11 nM | 8 nM | 13 nM | 15 nM | 3 nM | 128.8 °C | 12 nM | 6 nM | 9 nM | 8 nM | 10 nM | 6 nM | 5 nM | 7 nM | 13 nM | 1 nM | < 1 nM | [N-]=[N+]=Nc1cccc(CN2CCC3=C(C2)C(=O)N(Cc2ccc(C(F)(F)F)cc2)C2=NCCN23)c1 [I/111, 7-(3-Azidobenzyl)-4-(4-(trifluoromethyl)benzyl)-2,4,6,7,8,9-hexahydroimidazo[1,2-a]pyrido[3,4-e]pyrimidin-5(1H)-one] | 20.1 ± 1.68 nM | 8.58 ± 0.256 nM | –
5 | 10 nM | 9 nM | 10 nM | 13 nM | 3 nM | 190.5 °C | 13 nM | 10 nM | 11 nM | 8 nM | 11 nM | 7 nM | 5 nM | 9 nM | 12 nM | 2 nM | 1 nM | O=C1C2=C(CCN(Cc3cc(F)cc(F)c3)C2)N2CCN=C2N1Cc1ccc(F)cc1 [I/7, 4-(4-Fluorobenzyl)-7-(3,5-difluorobenzyl)-2,4,6,7,8,9-hexahydroimidazo[1,2-a]pyrido[3,4-e]pyrimidin-5(1H)-one] | 27.3 ± 15.4 nM | 22.1 ± 5.98 nM | IC50 [15]: 3 to 8 nM
6 | 5 nM | 5 nM | 5 nM | 6 nM | 2 nM | 168 °C | 5 nM | 4 nM | 3 nM | 4 nM | 3 nM | 3 nM | 2 nM | 2 nM | 4 nM | < 1 nM | < 1 nM | O=C1C2=C(CCN(Cc3cc(F)cc(F)c3)C2)N2CCN=C2N1Cc1ccc(C(F)(F)F)cc1 [I/30, 7-(3,5-Difluorobenzyl)-4-(4-(trifluoromethyl)benzyl)-2,4,6,7,8,9-hexahydroimidazo[1,2-a]pyrido[3,4-e]pyrimidin-5(1H)-one] | 2.08 ± 0.267 nM | 0.517 ± 0.0232 nM | IC50 [15]: 3 to 8 nM
7 | 2 nM | 3 nM | 3 nM | 4 nM | < 1 nM | 162.4 °C | – | – | 2 nM | – | – | – | – | – | – | – | – | O=C1C2=C(CCN(Cc3cc(F)cc(F)c3)C2)N2CCN=C2N1Cc1ccc(Cl)cc1 [I/124, 4-(4-Chlorobenzyl)-7-(3,5-difluorobenzyl)-2,4,6,7,8,9-hexahydroimidazo[1,2-a]pyrido[3,4-e]pyrimidin-5(1H)-one] | 1.31 ± 0.286 nM | < 0.25 nM | tumor volume / tumor growth ([14]; 3 weeks, vs control (Student's t-test)): significant; tumor weight after termination ([14]; after termination of experiment, vs control): highest, significant inhibition
